Results on three compounds are retold here after patent US20230416239A1, “COMPOUNDS AND METHODS FOR TREATING A CYTOKINE-MEDIATED DISEASE” (CONSERVATOIRE NATIONAL DES ARTS ET MÉTIERS, priority 2020, published 2023).

SMILES strings stand for the structures.

The test system of test [1] is hepatic shock induced by LPS/D-Galactosamine. In words: LPS/D-Galactosamine induced lethal shock. The test is classed as in vivo, Balb/C mice. As to conditions: 5 mg force-fed in DMSO eight hours before LPS/D-Galactosamine i.p.; 48 hours. The procedure:
7 week-old Balb/C mice (n=10 per group) were force-fed with 100 μl of a solution of DMSO containing 5 mg of compounds 33, 65 or 71 eight hours before receiving an intraperitoneal injection of 200 μl of PBS containing 0.2 μg of LPS and 20 mg of D-Galactosamine. A negative control group (vehicle) was force-fed with 100 μl of a solution of DMSO alone eight hours before to be injected with 200 μl of LPS/D-Galactosamine solution. Mice survival was monitored for 48 hours after the injection of LPS/D-Galactosamine.

For the next test, the target named is IL-6 (Homo sapiens, UniProt P05231). Put plainly: Immunoassay binding test, IL-6 (gp130 receptor, IL-6Ra present). Particulars: IL-6Ra 200 ng/ml. Summed up: (§1)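 Compounds (final 100 to 0.78 μM) were preincubated 2 h at 37 °C with a fixed amount of cytokine; for IL-6, IL-6Ra was also present at 200 ng/ml final. Mixtures were then incubated overnight at 4 °C on receptor-coated plates. Bound cytokine was detected with biotinylated anti-cytokine antibody and avidin-HRP, read as OD at 450 nm.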
Chain of IL-6 (P05231 30-212, species assumed): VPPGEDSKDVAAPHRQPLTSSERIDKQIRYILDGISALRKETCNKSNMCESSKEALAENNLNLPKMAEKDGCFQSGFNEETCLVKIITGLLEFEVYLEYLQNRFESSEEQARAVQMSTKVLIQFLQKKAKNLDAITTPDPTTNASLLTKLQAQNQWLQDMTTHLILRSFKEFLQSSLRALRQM

The next test deals with TNFa/TNFRI interaction (Homo sapiens, UniProt P01375). In words: TNFa/TNFRI interaction displacement test.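 On Displacement EC50 TNFa in presence of compound: Difference: SPD304 reference at 20 µM final.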 The format is binding. Particulars: for Displacement (%): compounds at 50 μM, human TNFRI 100 ng/ml. Summed up: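 Plates coated overnight at 4° C with human TNFRI (100 ng/ml) and blocked with 2% BSA, then test mixtures were incubated overnight at 4° C. Bound cytokine detected with biotinylated anti-cytokine antibody (2 h, 37° C) and avidin-HRP, read as OD at 450 nm.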
Chain of TNFa/TNFRI interaction (P01375 77-233 limits assumed): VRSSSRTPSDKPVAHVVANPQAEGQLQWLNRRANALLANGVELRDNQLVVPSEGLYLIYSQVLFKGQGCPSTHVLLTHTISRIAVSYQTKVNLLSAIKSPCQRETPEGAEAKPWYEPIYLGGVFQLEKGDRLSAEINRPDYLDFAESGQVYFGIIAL

In the next test the target is T1, IL-4 (Homo sapiens, UniProt P05112).
T1 sequence (P05112 25-153): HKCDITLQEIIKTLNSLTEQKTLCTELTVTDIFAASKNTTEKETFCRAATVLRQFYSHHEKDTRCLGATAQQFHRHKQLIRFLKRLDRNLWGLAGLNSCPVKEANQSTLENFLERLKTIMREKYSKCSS
In words: Immunoassay binding test, IL-4. As to conditions: for IC50: IL-4 400 ng/ml, receptor 100 ng/ml, read-out: BINDING IL4 IC50. Summed up: as §1

In another test the target is IL-13 (Homo sapiens, UniProt P35225). In words: Immunoassay binding test, IL-13. Particulars: for IC50: IL-13 400 ng/ml, receptor 100 ng/ml, read-out: BINDING IL13 IC50. The method, boiled down:
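Receptor-coated plates; compounds (100 to 0.78 μM final) preincubated 2 h at 37° C with fixed cytokine, then bound to receptor overnight at 4° C. Bound cytokine detected with biotinylated anti-cytokine antibody and avidin-HRP, OD 450 nm.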

In another test the target is TNFα (Homo sapiens, UniProt P01375). In words: Immunoassay binding test, TNFa. Particulars: compounds 100 to 0.78 μM; TNFα 10 ng/ml, receptor 100 ng/ml; read-out: BINDING TNF IC50. The method, boiled down:
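ELISA-type binding test: receptor-coated plates blocked with 2% BSA, then cytokine (six-point dilution series) preincubated 2 h at 37 °C and bound overnight at 4 °C. Detection used biotinylated anti-cytokine antibody and avidin-HRP, read as OD at 450 nm. For IL-6, IL-6Ra was present at 200 ng/ml final.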

Chain of IL-13 (P35225 25-146, species assumed): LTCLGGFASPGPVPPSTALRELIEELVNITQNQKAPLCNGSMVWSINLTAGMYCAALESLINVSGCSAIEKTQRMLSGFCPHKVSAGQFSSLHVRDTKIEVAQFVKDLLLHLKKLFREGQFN
Chain of TNFα (P01375 77-233 limits assumed, species assumed): as the sequence (P01375 77-233 limits assumed) above

`CN(CCOCCN(Cc1cccnc1F)Cc1cn(S(=O)(=O)c2ccccc2)c2ccccc12)C1CCCCC1` [Compound 65, N-(2-(2-(((2-fluoropyridin-3-yl)methyl)((1-(phenylsulfonyl)-1H-indol-3-yl)methyl)amino)ethoxy)ethyl)-N-methylcyclohexanamine]: the survival in test [1] was found to be 60%. On IL-6, the “BINDING IL6 % Neutra at 100 μM” value amounted to 0%. Further, at TNFa/TNFRI interaction, the “Displacement (%)” value is on record as 224%. At IL-4, the “BINDING IL4 % Neutra at 100 μM” value turned out to be 86.5% and the IC50 was found to be 5.5 µM. Moreover, on IL-13, the “BINDING IL13 % Neutra at 100 μM” value was determined as 79.3% and the IC50 was > 50 µM. The IC50 on TNFα came to 5.9 µM.

Turning to `O=S(=O)(c1ccccc1)n1cc(CN(CCCCCNC2CCCCC2)Cc2ccncc2)c2ccccc21` [Compound 33], the survival in test [1] is reported as 100%. Moreover, the “BINDING IL6 % Neutra at 100 μM” value at IL-6 is on record as −11.8%. Besides, the “Displacement EC50 TNFa in presence of compound: Difference” value on TNFa/TNFRI interaction (Compound EC50 minus SPD304 EC50) amounted to 0.0116 µg/mL. Besides, the “Displacement (%)” value on TNFa/TNFRI interaction came to 273%. Besides, on IL-4, the “BINDING IL4 % Neutra at 100 μM” value was found to be 96%. Also, the IC50 on IL-4 came out at 4.1 µM; on IL-13, 10.5 µM; on TNFα it was 4.6 µM. Moreover, on IL-13, the “BINDING IL13 % Neutra at 100 μM” value came to 95.4%.

Turning to `O=S(=O)(c1ccccc1)n1cc(CN(CCCCNC2CCCC2)Cc2cccnc2F)c2ccccc21` [Compound 71, N′-cyclopentyl-N^4-((2-fluoropyridin-3-yl)methyl)-N^4-((1-(phenylsulfonyl)-1H-indol-3-yl)methyl)butane-1,4-diamine], the survival in test [1] worked out at 60%. Besides, on IL-6, the “BINDING IL6 % Neutra at 100 μM” value was determined as 2%. The “Displacement (%)” value at TNFa/TNFRI interaction came to 199%. On IL-4, the “BINDING IL4 % Neutra at 100 μM” value is 92.4% and the IC50 is 6 µM. Also, on IL-13, the “BINDING IL13 % Neutra at 100 μM” value is 89.7% and the IC50 is > 50 µM. Further, the IC50 at TNFα came out at 9.8 µM.

Usually IC50 stands for the midpoint of a concentration-inhibition curve.
